Assay results as given in patent US6638956B2, “Pesticidal 1-arylpyrazoles” (Rhone-Poulenc, Inc., priority 1996, dated 2003).

Structure (SMILES) | melting point
N=C(NO)c1nn(-c2c(Cl)cc(C(F)(F)F)cc2Cl)c(N)c1[S+]([O-])CCF (stereo not drawn) [Compound 51, 5-Amino-1-[2,6-dichloro-4-(trifluoromethyl)phenyl]-N-hydroxy-4-(2-fluoroethylsulfinyl)-1H-pyrazole-3-carboximidamide] | 212 to 215 °C
CN=C(NOC)c1nn(-c2c(Cl)cc(C(F)(F)F)cc2Cl)c(N)c1[S+](C)[O-] (stereo not drawn) [Compound 50, 5-Amino-1-[2,6-dichloro-4-(trifluoromethyl)phenyl]-N-methoxy-N′-methyl-4-methylsulfinyl-1H-pyrazole-3-carboximidamide] | 139 to 142 °C
C[S+]([O-])C1=C(N)N(c2c(Br)cc(C(F)(F)F)cc2Br)N(O)C1C(=N)N (stereo not drawn) [Compound 61, 5-Amino-1-[2,6-dibromo-4-(trifluoromethyl)phenyl]-4-methylsulfinyl-2-N-hydroxy-1H-pyrazole-3-carboximidamide] | 240 to 241 °C
CSc1c(C=NOC(C)=O)nn(-c2c(Cl)cc(C(F)(F)F)cc2Cl)c1N [Compound 14, 5-Amino-1-[2,6-dichloro-4-(trifluoromethyl)phenyl]-4-methylthio-1H-pyrazole-3-carboxaldehyde O-(acetyl)oxime] | 205.5 to 206.5 °C
CC[S+]([O-])c1c(C(=N)NO)nn(-c2c(Cl)cc(C(F)(F)F)cc2Cl)c1NCC[S+](C)[O-] (stereo not drawn) [Compound 64, 1-[2,6-Dichloro-4-(trifluoromethyl)phenyl]-4-ethylsulfinyl-5-[2-(methylsulfinyl)ethylamino]-N-hydroxy-1H-pyrazole-3-carboximidamide] | 108 to 109 °C
C[S+]([O-])c1c(C=NO)nn(-c2c(Cl)cc(OC(F)(F)F)cc2Cl)c1N (stereo not drawn) [Compound 4, 5-Amino-1-[2,6-dichloro-4-(trifluoromethoxy)phenyl]-4-methylsulfinyl-1H-pyrazole-3-carboxaldehyde oxime] | 144 to 146 °C
C[S+]([O-])c1c(C(=N)NO)nn(-c2ncc(C(F)(F)F)cc2Cl)c1N (stereo not drawn) [Compound 54, 5-Amino-1-[3-chloro-5-(trifluoromethyl)-2-pyridinyl]-4-methylsulfinyl-N-hydroxy-1H-pyrazole-3-carboximidamide] | 234 to 235 °C
Nc1c(C(F)(F)F)c(C=NO)nn1-c1c(Cl)cc(C(F)(F)F)cc1Cl [Compound 38, 5-Amino-1-[2,6-dichloro-4-(trifluoromethyl)phenyl]-4-trifluoromethyl-1H-pyrazole-3-carboxaldehyde oxime] | 136 to 146 °C
CCOC(=O)C(C)C(=O)ON=Cc1nn(-c2c(Cl)cc(C(F)(F)F)cc2Cl)c(N)c1[S+](C)[O-] (stereo not drawn) [Compound 13, 5-Amino-1-[2,6-dichloro-4-(trifluoromethyl)phenyl]-4-methylsulfinyl-1H-pyrazole-3-carboxaldehyde O-[2-(ethoxycarbonyl)propionyl]oxime] | 52 to 54 °C
CCSc1c(C=NO)nn(-c2c(Cl)cc(C(F)(F)F)cc2Cl)c1C [Compound 33, 1-[2,6-Dichloro-4-(trifluoromethyl)phenyl]-4-ethylthio-5-methyl-1H-pyrazole-3-carboxaldehyde oxime] | 155 to 157 °C
C[S+]([O-])c1c(C=NO)nn(-c2ncc(C(F)(F)F)cc2Cl)c1N (stereo not drawn) [Compound 32, 5-Amino-1-[3-chloro-5-(trifluoromethyl)-2-pyridinyl]-4-methylsulfinyl-1H-pyrazole-3-carboxaldehyde oxime] | 195.5 to 196.5 °C
CSc1c(C=NO)nn(-c2c(Cl)cc(C(F)(F)F)cc2Cl)c1C [Compound 29, 1-[2,6-Dichloro-4-(trifluoromethyl)phenyl]-5-methyl-4-methylthio-1H-pyrazole-3-carboxaldehyde oxime] | 160 to 162.5 °C
CNC(=O)ON=Cc1nn(-c2c(Cl)cc(C(F)(F)F)cc2Cl)c(N)c1[S+](C)[O-] (stereo not drawn) | 146 to 147 °C
CNc1c([S+](C)[O-])c(C(=N)NO)nn1-c1c(Cl)cc(C(F)(F)F)cc1Cl (stereo not drawn) [Compound 55, 1-[2,6-Dichloro-4-(trifluoromethyl)phenyl]-N-hydroxy-5-methylamino-4-methylsulfinyl-1H-pyrazole-3-carboximidamide] | 191 to 192 °C
CCNc1c([S+](C)[O-])c(C=NO)nn1-c1c(Cl)cc(C(F)(F)F)cc1Cl (stereo not drawn) [Compound 2, 1-[2,6-Dichloro-4-(trifluoromethyl)phenyl]-5-ethylamino-4-methylsulfinyl-1H-pyrazole-3-carboxaldehyde oxime] | 158 to 161 °C
CC[S+]([O-])c1c(C(=N)NO)nn(-c2c(Cl)cc(C(F)(F)F)cc2Cl)c1N (stereo not drawn) [Compound 42, 5-Amino-1-[2,6-dichloro-4-(trifluoromethyl)phenyl]-N-hydroxy-4-ethylsulfinyl-1H-pyrazole-3-carboximidamide] | 186 to 189 °C
CC[S+]([O-])c1c(C=NO)nn(-c2c(Cl)cc(C(F)(F)F)cc2Cl)c1N (stereo not drawn) [Compound 5, 5-Amino-1-[2,6-dichloro-4-(trifluoromethyl)phenyl]-4-ethylsulfinyl-1H-pyrazole-3-carboxaldehyde oxime] | 195 °C
C[S+]([O-])c1c(C(=N)NO)nn(-c2c(Cl)cc(C(F)(F)F)cc2Br)c1N (stereo not drawn) [Compound 63, 5-Amino-1-[2-bromo-6-chloro-4-(trifluoromethyl)phenyl]-4-methylsulfinyl-N-hydroxy-1H-pyrazole-3-carboximidamide] | 237 to 238 °C
CC[S+]([O-])CCNc1c([S+]([O-])CC)c(C(=N)NO)nn1-c1c(Cl)cc(C(F)(F)F)cc1Cl (stereo not drawn) [Compound 66, 1-[2,6-Dichloro-4-(trifluoromethyl)phenyl]-4-ethylsulfinyl-5-[2-(ethylsulfinyl)ethylamino]-N-hydroxy-1H-pyrazole-3-carboximidamide] | 173 to 175 °C
CC(=O)ON=Cc1nn(-c2c(Cl)cc(C(F)(F)F)cc2Cl)c(N)c1[S+](C)[O-] (stereo not drawn) [Compound 10, 5-Amino-1-[2,6-dichloro-4-(trifluoromethyl)phenyl]-4-methylsulfinyl-1H-pyrazole-3-carboxaldehyde O-(acetyl)oxime] | 130 to 134 °C
C[S+]([O-])c1c(C(=N)NO)nn(-c2c(Cl)cc(C(F)(F)F)cc2Cl)c1NCCS(=O)(=O)c1ccccc1 (stereo not drawn) [Compound 60, 1-[2,6-Dichloro-4-(trifluoromethyl)phenyl]-4-methylsulfinyl-5-[2-(phenylsulfonyl)ethylamino]-N-hydroxy-1H-pyrazole-3-carboximidamide] | 131 to 134 °C
CONC(=N)c1nn(-c2c(Cl)cc(C(F)(F)F)cc2Cl)c(N)c1[S+](C)[O-] (stereo not drawn) [Compound 49, 5-Amino-1-[2,6-dichloro-4-(trifluoromethyl)phenyl]-N-methoxy-4-methylsulfinyl-1H-pyrazole-3-carboximidamide] | 140 to 145 °C
CC(C)C(=O)NNC(=N)c1nn(-c2c(Cl)cc(C(F)(F)F)cc2Cl)c(N)c1[S+](C)[O-] (stereo not drawn) [Compound 70, 5-Amino-1-[2,6-dichloro-4-(trifluoromethyl)phenyl]-4-methylsulfinyl-N-(isopropylcarbonyl)amino-1H-pyrazole-3-carboximidamide] | 118 °C
CSc1c(C=NO)nn(-c2c(Cl)cc(C(F)(F)F)cc2Cl)c1N [Compound 8, 5-Amino-1-[2,6-dichloro-4-(trifluoromethyl)phenyl]-4-methylthio-1H-pyrazole-3-carboxaldehyde oxime] | 179 to 181 °C
